The source of these data is patent publication US8034948B2, “Method for resolving omeprazole salts” (Universite de Rouen, priority 2007, dated 2011).

Structures can show the parent of a compound that is named as a salt.

A short description of series [1]: Stability of the potassium salt solvates (ambient atmosphere / alcoholic medium with excess potassium hydroxide). In kind it is physicochemical.
Series [2] is described as follows: Solubility measurements. In kind it is physicochemical. On the procedure: The solubility measurements are calculated, for a given temperature and for a given excess of potassium hydroxide, in the following way: [formula]
[3] abbreviates: in an ethanol-water mixture in which ethanol predominates, with an excess of potassium hydroxide.
[4] abbreviates: excess of potassium hydroxide in alcohol/alcohol or alcohol/water solvent mixtures or pure alcohol.

For `COc1ccc2nc([S@@+]([O-])Cc3ncc(C)c(OC)c3C)[nH]c2c1` [(S)-omeprazole, 5-methoxy-2-[(S)-[(4-methoxy-3,5-dimethyl-2-pyridinyl)methyl]sulphinyl]-1H-benzimidazole], the Stability entry in series [1] (setting [3]) is given as “stable”.
For `COc1ccc2[nH]c([S+]([O-])Cc3ncc(C)c(OC)c3C)nc2c1` (racemic) [racemic mixture], the Solubility in series [2] (absolute ethanol, 1.2 molar equivalents of potassium hydroxide, 26 °C) was determined as 1.3 % by weight; in series [2] (absolute ethanol, 1.2 molar equivalents of potassium hydroxide, 30 °C), 1.7 % by weight; in series [2] (absolute ethanol, 1.2 molar equivalents of potassium hydroxide, 33 °C) it was 2.2 % by weight; in series [2] (ethanol/water (90/10% weight/weight), 1.2 molar equivalents of potassium hydroxide, 30 °C), 25 % by weight; in series [2] (ethanol/water azeotropic mixture, 1.2 molar equivalents of potassium hydroxide, 29 °C), 8.7 % by weight; in series [2] (ethanol/water azeotropic mixture, 1.2 molar equivalents of potassium hydroxide, 31 °C), 9.1 % by weight. Moreover, the Solubility in series [2] (ethanol/water azeotropic mixture, 1.2 molar equivalents of potassium hydroxide, 35 °C) is 13.7 % by weight. Further, the “Solubility (coordinates of the point L)” value in series [2] (ethanol/water (93/7% weight/weight), 1.2 molar equivalents of potassium hydroxide, 34.4 °C) is 20 % by weight. Moreover, the “Solubility of the salt (in words)” value in series [2] (in ethanol (Example 7)) is listed as “low”. Also, in series [1] (setting [4]), the Stability entry is on record as “stable”.
Regarding `COc1ccc2nc([S@@+]([O-])Cc3ncc(C)c(OC)c3C)[nH]c2c1` [pure enantiomer (S)-omeprazole, 5-methoxy-2-[(S)-[(4-methoxy-3,5-dimethyl-2-pyridinyl)methyl]sulphinyl]-1H-benzimidazole], the Stability result in series [1] (setting [4]) is “stable”.
As for `COc1ccc2[nH]c([S+]([O-])Cc3ncc(C)c(OC)c3C)nc2c1` (racemic) [ethanol solvates of the potassium salt of racemic omeprazole], the Stability result in series [1] (setting [3]) is given as “stable”.
